Legend:
Assay type in all cases: in vivo
Kochia (Kochia scoparia) [1] = assay: Test A preemergence; conditions: Bassia scoparia, pre-emergence, 240 h
Method in brief: (§1)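 Ratings of 0 (no effect) to 100 (complete control) come from visual comparison with untreated controls roughly 10 d after treatment. Test chemicals, formulated in a non-phytotoxic solvent mixture with surfactant, were applied either as a preemergence directed soil spray on seeded soil or postemergence to one- to two-leaf plants 2 to 10 cm tall.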

[2] = tested on: barnyardgrass (Echinochloa crus-galli); assay: Test A preemergence; conditions: Echinochloa crus-galli, pre-emergence, 240 h
Method in brief: as §1

[3] = tested on: giant foxtail (Setaria faberii); assay: Test A preemergence; conditions: Setaria faberi, pre-emergence, 240 h
Method in brief: as §1

[4] = tested on: pigweed (Amaranthus retroflexus); assay: Test A preemergence; conditions: Amaranthus retroflexus, pre-emergence, 240 h
[5] = tested on: ragweed (common ragweed, Ambrosia elatior); assay: Test A preemergence; conditions: Ambrosia artemisiifolia, pre-emergence, 240 h
Method in brief: as §1

[6] = tested on: ryegrass, Italian (Italian ryegrass, Lolium multiflorum); assay: Test A preemergence; conditions: Lolium multiflorum, pre-emergence, 240 h
Method in brief: as §1

[7] = tested on: Galium (catchweed bedstraw, Galium aparine); assay: Test A postemergence; conditions: Galium, post-emergence, 240 h, 125 g ai/ha, postemergence, visual injury rating after approximately 10 d; read-out: Galium plant response rating (0 to 100 scale, 0 no effect, 100 complete control)
Method in brief: as §1

Kochia (Kochia scoparia) [8] = assay: Test A postemergence; conditions: Bassia scoparia, post-emergence, 240 h, 125 g ai/ha, postemergence, visual injury rating after approximately 10 d; read-out: Kochia plant response rating (0 to 100 scale, 0 no effect, 100 complete control)
Method in brief: as §1

[9] = tested on: barnyardgrass (Echinochloa crus-galli); assay: Test A postemergence; conditions: Echinochloa crus-galli, post-emergence, 240 h, 125 g ai/ha, postemergence, visual injury rating after approximately 10 d; read-out: Barnyardgrass plant response rating (0 to 100 scale, 0 no effect, 100 complete control)
Method in brief: as §1

[10] = tested on: blackgrass (Alopecurus myosuroides); assay: Test A postemergence; conditions: Alopecurus myosuroides, post-emergence, 240 h, 125 g ai/ha, postemergence, visual injury rating after approximately 10 d; read-out: Blackgrass plant response rating (0 to 100 scale, 0 no effect, 100 complete control)
Method in brief: as §1

corn (Zea mays) = assay: Test A postemergence; conditions: Zea mays, post-emergence, 240 h, 125 g ai/ha, postemergence, visual injury rating after approximately 10 d; read-out: Corn plant response rating (0 to 100 scale, 0 no effect, 100 complete control)
Method in brief: as §1

[11] = tested on: giant foxtail (Setaria faberii); assay: Test A postemergence; conditions: Setaria faberi, post-emergence, 240 h, 125 g ai/ha, postemergence, visual injury rating after approximately 10 d; read-out: Foxtail, Giant plant response rating (0 to 100 scale, 0 no effect, 100 complete control)
Method in brief: as §1

[12] = tested on: pigweed (Amaranthus retroflexus); assay: Test A postemergence; conditions: Amaranthus retroflexus, post-emergence, 240 h, 125 g ai/ha, postemergence, visual injury rating after approximately 10 d; read-out: Pigweed plant response rating (0 to 100 scale, 0 no effect, 100 complete control)
Method in brief: as §1

[13] = tested on: ragweed (common ragweed, Ambrosia elatior); assay: Test A postemergence; conditions: Ambrosia artemisiifolia, post-emergence, 240 h, 125 g ai/ha, postemergence, visual injury rating after approximately 10 d; read-out: Ragweed plant response rating (0 to 100 scale, 0 no effect, 100 complete control)
Method in brief: as §1

[14] = tested on: ryegrass, Italian (Italian ryegrass, Lolium multiflorum); assay: Test A postemergence; conditions: Lolium multiflorum, post-emergence, 240 h, 125 g ai/ha, postemergence, visual injury rating after approximately 10 d; read-out: Ryegrass, Italian plant response rating (0 to 100 scale, 0 no effect, 100 complete control)
Method in brief: as §1

[15] = tested on: wheat (Triticum aestivum); assay: Test A postemergence; conditions: Triticum aestivum, post-emergence, 240 h, 125 g ai/ha, postemergence, visual injury rating after approximately 10 d; read-out: Wheat plant response rating (0 to 100 scale, 0 no effect, 100 complete control)
Method in brief: as §1

Question: What does the source list for `Cc1c(F)ccc([C@H]2CN(C)C(=O)[C@@H]2C(=O)Nc2ccccc2S(C)(=O)=O)c1F` [Compound 842]?
Answer: pest or weed control at 125 g/ha (Kochia (Kochia scoparia) [1]; 125 g ai/ha, preemergence, 0 to 100 scale where 0 is no effect and 100 is complete control, read-out: Kochia plant response rating): 80%; pest or weed control at 500 g/ha (Kochia (Kochia scoparia) [1]; 500 g ai/ha, Preemergence, visual injury vs untreated controls after approximately 10 d, read-out: Kochia plant response rating (0 to 100 scale where 0 is no effect and 100 is complete control)): 80%; pest or weed control at 125 g/ha ([2]; 125 g ai/ha, preemergence, 0 to 100 scale where 0 is no effect and 100 is complete control, read-out: Barnyardgrass plant response rating): 90%; pest or weed control at 500 g/ha ([2]; 500 g ai/ha, Preemergence, visual injury vs untreated controls after approximately 10 d, read-out: Barnyardgrass plant response rating (0 to 100 scale where 0 is no effect and 100 is complete control)): 90%; pest or weed control at 125 g/ha ([3]; 125 g ai/ha, preemergence, 0 to 100 scale where 0 is no effect and 100 is complete control, read-out: Foxtail, Giant plant response rating): 90%; pest or weed control at 500 g/ha ([3]; 500 g ai/ha, Preemergence, visual injury vs untreated controls after approximately 10 d, read-out: Foxtail, Giant plant response rating (0 to 100 scale where 0 is no effect and 100 is complete control)): 100%; pest or weed control at 125 g/ha ([4]; 125 g ai/ha, preemergence, 0 to 100 scale where 0 is no effect and 100 is complete control, read-out: Pigweed plant response rating): 40%; pest or weed control at 500 g/ha ([4]; 500 g ai/ha, Preemergence, visual injury vs untreated controls after approximately 10 d, read-out: Pigweed plant response rating (0 to 100 scale where 0 is no effect and 100 is complete control)): 70%; pest or weed control at 125 g/ha ([5]; 125 g ai/ha, preemergence, 0 to 100 scale where 0 is no effect and 100 is complete control, read-out: Ragweed plant response rating): 70%; pest or weed control at 500 g/ha ([5]; 500 g ai/ha, Preemergence, visual injury vs untreated controls after approximately 10 d, read-out: Ragweed plant response rating (0 to 100 scale where 0 is no effect and 100 is complete control)): 80%; pest or weed control at 125 g/ha ([6]; 125 g ai/ha, preemergence, 0 to 100 scale where 0 is no effect and 100 is complete control, read-out: Ryegrass, Italian plant response rating): 30%; pest or weed control at 500 g/ha ([6]; 500 g ai/ha, Preemergence, visual injury vs untreated controls after approximately 10 d, read-out: Ryegrass, Italian plant response rating (0 to 100 scale where 0 is no effect and 100 is complete control)): 60%; pest or weed control at 125 g/ha [7]: 50%; pest or weed control at 125 g/ha (Kochia (Kochia scoparia) [8]): 30%; pest or weed control at 125 g/ha [9]: 90%; pest or weed control at 125 g/ha [10]: 30%; plant injury at 125 g/ha (corn (Zea mays)): 20%; pest or weed control at 125 g/ha [11]: 90%; pest or weed control at 125 g/ha [12]: 30%; pest or weed control at 125 g/ha [13]: 30%; pest or weed control at 125 g/ha [14]: 20%; plant injury at 125 g/ha [15]: 30%

Reference: patent publication US12077503B2, “Substituted cyclic amides and their use as herbicides” (FMC CORPORATION, priority 2015, dated 2024)
